Experimental data taken from patent US12128012B2, “Ketamine treatment for amyotrophic lateral sclerosis” (University of Kansas, priority 2020, dated 2024).

Columns and labels:
Format in all cases: in vivo
[1] = tested on: SOD1-G93A mouse model of ALS; test: Survival (day of death) in SOD1-G93A mice
Description: (§1) Testing can be performed in SOD1-G93A mice as follows. Body weight and grip strength during a hanging wire test can be measured 3 days a week beginning at 90 days of age (presymptomatic). Drug injections can be made immediately after motor testing. Mice can be tested until they reach end-stage as defined by loss of righting reflex for 30 seconds or if they are found dead in their cage. At death, the muscles (soleus, tibialis anterior, and diaphragm) and brains can be harvested for histological analyses. Comparisons of neuromuscular junction innervation and myosin heavy chain isoforms can be made between the treatment groups. Experiments can determine cortical motor neuronal integrity using standard histological methods.
(§2) Experiments were performed to determine the effects of daily sub-anesthetic doses (e.g., less than 100 mg/kg) of ketamine on the SOD1-G93A mouse model of ALS. The method included administering two doses of ketamine (e.g., 10 mg/kg and 30 mg/kg) and a saline vehicle to three groups of SOD1-G93A mice per day for 5 days per week beginning at 90 days of age. The method included measuring body weight, grip strength, and survival.
As shown, treatment with the ketamine compound appears to provide a higher probability of survival for a longer period of time for both the 10 mg/kg and 30 mg/kg dosages (p=0.06; FIG. 2). […]

[2] = tested on: SOD1-G93A mouse model of ALS; test: Latency between 20% loss of body weight and death in SOD1-G93A mice; settings: for latency between 20% loss of body weight and death: FIG. 3 (vehicle about 2 days)
Method: as §2
Additionally, the latency in days between the day in which each mouse reached 80% of its initial body weight (i.e., 20% reduction) and the day of death as defined above was calculated. […] Accordingly, higher dosages may still provide for longer latency of life, or longer life expectancy.

[3] = tested on: SOD1-G93A mouse model of ALS; test: Grip strength, hanging wire test, SOD1-G93A mice; settings: 10 mg/kg and 30 mg/kg vs saline vehicle, 5 days per week from 90 days of age; data not shown
Description: as §1, §2

[4] = tested on: SOD1-G93A mouse model of ALS; test: Body weight in SOD1-G93A mice under ketamine
Description: as §1, §2
The three groups (e.g., 12 mice per group with intraperitoneal injection): vehicle (e.g., 0), 10 mg/kg (e.g., 10), and 30 mg/kg (e.g., 30) are shown (p=0.06). […] As such, the 10 mg/kg dosage may be useful for ALS patients. […] Accordingly, increasing the amount of ketamine administered may increase the effects described herein. Any increase in life (e.g., probability of survival) can be beneficial, which may be accomplished by treatment with the ketamine compound.

CNC1(c2ccccc2Cl)CCCCC1=O (stereo not shown) [ketamine, 2-(2-chlorophenyl)-2-(methylamino)cyclohexan-1-one] was tested, and the “probability of survival (day of death: loss of righting reflex for 30 seconds or found dead)” value ([1]; 10 mg/kg vs vehicle, FIG. 2, overall p=0.06) was “some improvement over the vehicle”, the “probability of survival (day of death: loss of righting reflex for 30 seconds or found dead)” value ([1]; 30 mg/kg vs vehicle, FIG. 2, p<0.05) was “survived significantly longer than the vehicle-treated group” and the “longer life expectancy than no treatment” value ([2]; 10 mg/kg vs vehicle) was “about 4 days”. For the same compound, the “latency between 20% loss of body weight and death” value ([2]; 10 mg/kg) was “about 6 days”, the “longer life expectancy over the 10 mg/kg treatment” value ([2]; 30 mg/kg vs 10 mg/kg) was “about 4 days” and the “longer life expectancy than no treatment” value ([2]; 30 mg/kg vs vehicle) was “about 8 days”. The “latency between 20% loss of body weight and death” value ([2]; 30 mg/kg) was “about 10 days”, the “latency between 20% loss of body weight and death, effect of dose” value ([2]; vehicle, 10 and 30 mg/kg, ANOVA p<0.05, FIG. 3) was “statistically significant dose-dependent increase” and the “effects on grip strength using the hanging wire test” value [3] was “no significant effects”. The “effects on body weight” value ([4]; 10 mg/kg and 30 mg/kg vs saline vehicle, 5 days per week from 90 days of age, data not shown) was “no significant effects”, the “probability of survival curve for day body weight fell below 80%” value ([4]; 10 mg/kg intraperitoneal vs vehicle, FIG. 1) was “improvement in the probability of survival” and the “loss of body weight (muscle mass), trend in survival curve” value ([4]; 30 mg/kg intraperitoneal vs 10 mg/kg or without ketamine, FIG. 1) was “delays loss of body weight (muscle mass) for a longer period of time”. For the same compound, the “survival analysis: day in which body weight fell below 80%, difference between the groups” value ([4]; vehicle, 10 mg/kg, 30 mg/kg, intraperitoneal, 12 mice per group, FIG. 1, p=0.06) was “no significant difference”.
